What was measured:
[1] = Pyrolysis behavior observed by TG-DTA; type: physicochemical; details: for difference of mass reduced between theoretical value and actual measured value: heating
Procedure: HTL17 synthesized in Example 1 was heated at a range of 25° C. to 450° C. at a temperature increasing rate of 5° C./min and the pyrolysis behavior thereof was observed by TG-DTA [reference: Al2O3, under nitrogen flow (200 mL/min), EXSTAR6000 (product name), product of Seiko Instruments Inc.].
The results are shown in FIG. 2, where the horizontal axis indicates temperature [° C.], the left-hand vertical axis indicates change in mass [mg] and the right-hand vertical axis indicates DTA signal [μV].

[2] = Preparation of ink (evaluation of solubility): degree of solubility from saturated solution; type: physicochemical; details: for degree of solubility, 1,2,3,4-Tetrahydronaphthalene: solvent 1,2,3,4-tetrahydronaphthalene (Tetralin); for degree of solubility, 2-Propanol: solvent 2-propanol; for degree of solubility, ethyl benzoate: solvent ethyl benzoate; for degree of solubility, Toluene: solvent toluene
Procedure: HTL17 was added to each of toluene, chloroform, 2-propanol, 1,2,3,4-tetrahydronaphthalene (Tetralin®), ethyl benzoate (100 mL respectively), until undissolved compound was observed. The mixture was stirred for 10 minute with refluxing the solvent. Then, mixture was cooled to ambient temperature, and stirred for 1 hour, followed by still standing for 16 hours. The supernatant was filtrated by PTFE filter having thickness of 0.2 μm to obtain saturated solution. The saturated solution was dried under reduced pressure to calculate degree of solubility for each solvent.
Evaluation criteria in Table 4 was described below.

[3] = saturated solution at ambient temperature

Structure (SMILES) | difference of mass reduced between theoretical value and actual measured value ([1]; prophetic example) | difference of mass reduced between theoretical value and actual measured value [1] | mass reduction ([1]; from ambient temperature to 250° C., 5° C./min, nitrogen flow) | degree of solubility, 1,2,3,4-Tetrahydronaphthalene ([2]; prophetic example) | degree of solubility, 2-Propanol ([2]; prophetic example) | degree of solubility, ethyl benzoate ([2]; prophetic example) | degree of solubility, Toluene ([2]; prophetic example) | degree of solubility, 1,2,3,4-Tetrahydronaphthalene [2, 3] | degree of solubility, 2-Propanol [2, 3] | degree of solubility, ethyl benzoate [2, 3] | degree of solubility, Toluene [2, 3]
c1ccc2cc(N(c3ccc(-c4ccc(N(c5ccc6ccccc6c5)c5cccc6ccccc56)cc4)cc3)c3cccc4ccccc34)ccc2c1 [α-TNB, 4,4′-tetrakis[N-(1-naphthyl)-N-(2-naphthyl)amino]biphenyl, reference compound] | – | – | – | B (The degree of solubility is not less than 1% by mass but less than 5% by mass.) | C (The degree of solubility is less than 1% by mass) | B (The degree of solubility is not less than 1% by mass but less than 5% by mass.) | A (The degree of solubility is not less than 5% by mass) | – | – | – | –
c1ccc(-c2ccc(N(c3ccc(-c4ccccc4)cc3)c3ccc(-c4ccc(N(c5ccc(-c6ccccc6)cc5)c5ccc(-c6ccccc6)cc5)cc4)cc3)cc2)cc1 [TBPB, N,N,N′,N′-tetra-biphenyl-4-yl-benzidine, reference compound] | – | – | – | B (The degree of solubility is not less than 1% by mass but less than 5% by mass.) | C (The degree of solubility is less than 1% by mass) | B (The degree of solubility is not less than 1% by mass but less than 5% by mass.) | A (The degree of solubility is not less than 5% by mass) | – | – | – | –
c1ccc2cc(N(c3ccc(-c4ccc(N(c5ccc6ccccc6c5)c5cccc6ccccc56)cc4)cc3)c3cccc4ccccc34)ccc2c1 [α,β-TNB, 4,4′-bis[N-(1-naphthyl)-N-(2-naphthyl)amino]biphenyl, reference compound] | – | – | – | – | – | – | – | A (The degree of solubility is not less than 5% by mass) | C (The degree of solubility is less than 1% by mass) | B (The degree of solubility is not less than 1% by mass but less than 5% by mass.) | A (The degree of solubility is not less than 5% by mass)
c1ccc2c(c1)-c1ccccc1C2(c1ccc(N(c2ccc3ccccc3c2)c2ccc3ccccc3c2)cc1)c1ccc(N(c2ccc3ccccc3c2)c2ccc3ccccc3c2)cc1 [NPAPF, 9,9-bis[4-(N,N-bis-naphthalene-2-yl-amino)phenyl]-9H-florene, reference compound] | – | – | – | – | – | – | – | B (The degree of solubility is not less than 1% by mass but less than 5% by mass.) | C (The degree of solubility is less than 1% by mass) | C (The degree of solubility is less than 1% by mass) | B (The degree of solubility is not less than 1% by mass but less than 5% by mass.)

Second part, led by results:

difference of mass reduced between theoretical value and actual measured value ([1]; prophetic example) | difference of mass reduced between theoretical value and actual measured value [1] | mass reduction ([1]; from ambient temperature to 250° C., 5° C./min, nitrogen flow) | Structure (SMILES) | degree of solubility, 1,2,3,4-Tetrahydronaphthalene ([2]; prophetic example) | degree of solubility, 2-Propanol ([2]; prophetic example) | degree of solubility, ethyl benzoate ([2]; prophetic example) | degree of solubility, Toluene ([2]; prophetic example) | degree of solubility, 1,2,3,4-Tetrahydronaphthalene [2, 3] | degree of solubility, 2-Propanol [2, 3] | degree of solubility, ethyl benzoate [2, 3] | degree of solubility, Toluene [2, 3]
−0.18% | – | – | CCCCCC(=O)OC1C=C(c2ccc(N(c3ccc(C4=CC(OC(=O)CCCCC)CCC4OC(=O)CCCCC)cc3)c3ccc(-c4ccc(N(c5ccc(C6=CC(OC(=O)CCCCC)CCC6OC(=O)CCCCC)cc5)c5ccc(C6=CC(OC(=O)CCCCC)CCC6OC(=O)CCCCC)cc5)cc4)cc3)cc2)C(OC(=O)CCCCC)CC1 (stereo not drawn) [HTL34] | A (The degree of solubility is not less than 5% by mass) | B (The degree of solubility is not less than 1% by mass but less than 5% by mass.) | A (The degree of solubility is not less than 5% by mass) | A (The degree of solubility is not less than 5% by mass) | – | – | – | –
– | −0.16% | – | CCCCCC(=O)OC1CCC(OC(=O)CCCCC)c2cc(N(c3ccc(C4(c5ccc(N(c6ccc7c(c6)C(OC(=O)CCCCC)CCC7OC(=O)CCCCC)c6ccc7ccccc7c6)cc5)c5ccccc5-c5ccccc54)cc3)c3ccc4ccccc4c3)ccc21 (stereo not drawn) [HTL33] | – | – | – | – | A (The degree of solubility is not less than 5% by mass) | B (The degree of solubility is not less than 1% by mass but less than 5% by mass.) | A (The degree of solubility is not less than 5% by mass) | A (The degree of solubility is not less than 5% by mass)
– | −0.12% | – | CCCCCC(=O)OC1CCC(OC(=O)CCCCC)c2cc(N(c3ccc(-c4ccc(N(c5ccc6c(c5)C(OC(=O)CCCCC)CCC6OC(=O)CCCCC)c5cccc6ccccc56)cc4)cc3)c3cccc4ccccc34)ccc21 (stereo not drawn) [HTL18] | – | – | – | – | A (The degree of solubility is not less than 5% by mass) | A (The degree of solubility is not less than 5% by mass) | A (The degree of solubility is not less than 5% by mass) | A (The degree of solubility is not less than 5% by mass)
– | – | 40.0% | CCCCCC(=O)OC1CCC(OC(=O)CCCCC)c2cc(N(c3ccc(-c4ccc(N(c5ccc6c(c5)C(OC(=O)CCCCC)CCC6OC(=O)CCCCC)c5ccc6ccccc6c5)cc4)cc3)c3ccc4ccccc4c3)ccc21 (stereo not drawn) [HTL17] | – | – | – | – | A (The degree of solubility is not less than 5% by mass) | A (The degree of solubility is not less than 5% by mass) | A (The degree of solubility is not less than 5% by mass) | A (The degree of solubility is not less than 5% by mass)
